Data as given in US20250306008A1, “PHARMACEUTICAL COMPOSITION FOR TREATING OR PREVENTING MALIGNANT BREAST CANCER” (KOREA ADVANCED INSTITUTE OF SCIENCE AND TECHNOLOGY, priority 2021, published 2025).

Assays:
breast cancer patients = assay: Patients' drug response to tamoxifen according to BCL11A and HDAC1/2 expression; parameters: species or system human; details: patient group with low expression of BCL11A and HDAC1/2 compared to the group with high expression
T47D cell line = assay: Tamoxifen drug response after BCL11A and HDAC1/2 overexpression; type: cell-based, human
Description: The present inventors confirmed the tamoxifen drug response in human breast cancer cell lines T47D and MCF7 upon overexpression (OE) of BCL11A and HDAC1/2.

MDA-MB231 cells = assay: Tamoxifen drug response (Incucyte confluency) after BCL11A and HDAC1/2 inhibition; type: cell-based; details: tamoxifen 10 uM
Experimental: (§1) Briefly, it is as follows: Cells were plated in 1×10^4 cells (3 repetitions for each condition; triplicate), after 24 hours, the cells were treated with the tamoxifen drug (10 uM) and monitored by taking pictures at 3-hour intervals using Incucyte for 72 hours. After that, the confluency of the cells in the pictures was calculated and the sensitivity of the cells to various drugs was graphed.

BT20 cells = assay: as above; type: cell-based; details: tamoxifen 10 uM
Experimental: as §1

Molecule | sensitivity of patient group to the tamoxifen drug (breast cancer patients) | sensitivity to tamoxifen of overexpressing cells (T47D cell line; T47D cells overexpressing BCL11A-OE, HDAC1/2-OE, or both) | response of control cells to tamoxifen (T47D cell line; T47D control cells) | sensitivity of control cells (shScrambled) to Tamoxifen (MDA-MB231 cells; MDA-MB231 control cells (shScrambled), 72 hours) | sensitivity of control cells (shScrambled) to Tamoxifen (BT20 cells; BT20 control cells (shScrambled), 72 hours) | sensitivity of treated cells to Tamoxifen (cell confluency) (MDA-MB231 cells; MDA-MB231, monitored 72 hours) | sensitivity of treated cells to Tamoxifen (cell confluency) (BT20 cells; BT20, monitored 72 hours)
CC/C(=C(\c1ccccc1)c1ccc(OCCN(C)C)cc1)c1ccccc1 [Tamoxifen, tamoxifen] | higher sensitivity | did not show sensitivity | responded | did not show sensitivity | did not show sensitivity | – | –
shBCL11A: shRNA (GCATAGACGATGGCACTGTTA; SEQ ID NO: 1) designed to target the BCL11A gene, used as the BCL11A inhibitor | – | – | – | – | – | some sensitivity | some sensitivity
